# Assay results: patent US8158577B2, “Modulation of cartilage homeostasis by active domains of cell binding extracellular matrix molecules” (priority 2004, dated 2012)
# Columns and labels:
# [1] = system: IL-1 stimulated cartilage; experiment: NO release in IL-1 stimulated cartilage explants (Griess reaction); assay type: cell-based, bovine; conditions: 400 uM peptide, IL-1a 10 ng/ml
# Protocol: The following experiments measure the effect of a peptide on NO release in IL-1 stimulated cartilage.
# Study design: A skinned bovine nose (from cows 18-24 months old) was collected at Hörby slaughter house (Team Ugglarp, Sweden). The septum inside the nose was cut out and the mucosa and the perichondrium was removed before the cartilage was placed in PBS with PEST (100 IU penicillin, 100 μg/ml streptomycin) and 2.5 μg/ml Fungizone (all from Invitrogen, Sweden) for 2 hours at room temperature.
# Two mm pieces were punched out of the cartilage. Each piece was placed in a 24-well cell culture plate (Falcon, Sweden) containing 1 ml cell culture medium, HAMs F12 (Invitrogen, Sweden) supplemented with 10 μg/ml BSA, […] (both from Sigma, Sweden), PEST (100 IU penicillin, […]) and 2.5 μg/ml Fungizone. After 24 hours, the medium was changed and the cartilage pieces were stimulated with human recombinant IL-1a, 10 ng/ml (Roche, Sweden). The peptides where tested in triplet at 20 and 400 μM. The cartilage tissue was incubated for another six days, mediums were exchanged every third day. On each occasion the media were collected for measurement of NO (Griess reaction).
# [2] = system: m-BSA antigen induced monoarthritis in rat; experiment: In vivo antigen induced arthritis, knee-joint swelling; conditions: intra-articular, twice daily
# Protocol: The following model experiment measure the effect of the investigated compound on knee-joint swelling using antigen induced arthritis.
# The effect of locally administered test compound, 400 mM given twice daily, on the development of arthritis in m-BSA antigen induced monoarthritis in rat was evaluated. Animals treated with saline or Methotrexate (in clinically relevant dose) were used as controls.
# Study design: Female Dark Agouti rats, weighing approximately 150 g (B&K breeding center, Denmark) were used. The animals were sensitised intradermally at the tail root with 1 mg mBSA (Sigma A-1009) dissolved in […] and emulsified in […] complete adjuvant (Sigma F 5881). Ten days later the rats were shaved (left knee) and challenged with an intraarticular (i.a) injection of […]. Test compounds were administered intra-articular (left knee) in […] four hours before challenge and thereafter twice daily. The development of arthritis (knee diameters) was registered with an odimeter/calliper. The procedures were carried out under a brief Enflurane anaesthesia. The animals were sacrificed at day 4 after challenge/first treatment.
# [3] = system: K105 cells; experiment: Adhesion of K105 cells to chondroadherin in the presence of synthetic peptide (FIG. 3, 5A-5B, 13); assay type: cell-based, human; conditions: 1 hour at 37° C.
# Protocol: Human cells (K9) originating from a human chondrosarcoma were a kind gift from Drs. Sven Inerot and Anders Lindahl, The Salgrenska University Hospital Gothenburg, Sweden. The K9 cells were cultured in Dulbeccos Modified Eagle Medium: Nutrient Mixture F12 (DMEM/F12 1:1) with GLUTAMAX I, supplemented with 10% fetal calf serum, 25 μg/ml ascorbic acid, 50 IU of penicillin and 50 μg/ml streptomycin (Life Technologies, Inc.). A different human cells line (K105) originating from a human chondrosarcoma was a kind gift from Dr. Sven Inerot, The Salgrenska University Hospital, Gothenburg, Sweden. The K105 cells were cultured in a mix of 40% Dulbeccos Modified Eagle Medium, 40% Minimum Essential Media (MEM) alpha Medium, 10% Nutrient Mixture F1 supplemented with 100 nM hydrocortisone, 100 ng/ml insulin, 10% fetal calf serum, 25 μg/ml ascorbic acid, 50 IU of penicillin and 50 μg/ml streptomycin (Life Technologies, Inc.). To harvest cells, culture dishes were rinsed three times with Ca^2+/Mg^2+-free PBS and the cells were incubated with 0.5% trypsin and 1 mM EDTA for 5 min. Detached cells were suspended in PBS containing 1 mg/ml trypsin inhibitor (Sigma) and then washed in PBS. To remove membrane-bound collagens the cells were treated with collagenase 100 U/ml (CLSPA; Worthington Biochemical Corp., Lakewood, N.J.) in PBS, 30 min. 37° C. and then washed in PBS.
# Tissue culture 48-wells dishes (Nunclon, Nunc, Denmark) were coated overnight with 5 μg/ml chondroadherin in 4M Guanidine-HCl, 50 mM sodium acetate, pH 5.8, or for native protein in PBS. Alternatively coating was with 5 μg/ml collagen type II in PBS followed by after-coating with 0.5% BSA in PBS for 3 hours. Collagen type II was isolated from bovine nasal cartilage by pepsin digestion (11). Bacterially expressed chondroadherin was isolated as described above. Recombinant chondroadherin expressed in EBNA cell was cloned and purified as described elsewhere (8).
# To test cell binding, the chondrosarcoma cells or bovine chondrocytes were suspended in PBS containing 0.1% BSA, 25 U/ml collagenase and added to the wells (50,000/well), in the absence or presence of various peptide pools or the synthetic peptides (200, 100, 50, 25, 12.5 μg/ml). Non-adherent cells were removed after 1 hour and adhesion was determined by measuring lysosomal N-acetylglucosaminidase (12). Adhesion and spreading was visualized by light microscopy. In the time studies, k105 cells were allowed to adhere for 30 minutes, unbound cells were removed and medium without serum supplemented with or without peptides (250 μg/ml), β1 integrin antibody (clone P4C10, Gibco BRL), EDTA (5 mM) was added. Cell morphology was visualized by light microscopy after 1, 3 and 20 hours.
# Study design: Tissue culture dishes (48-wells) were coated with 5 μg/ml chondroadherin expressed in E. coli and blocked for non-specific binding with BSA. […] were suspended in PBS containing 0.1% BSA, 25 U/ml collagenase and added to the wells (50,000/well) in the presence of synthetic peptide to be tested and allowed to adhere for 1 hour at 37° C. Nonadherent cells were removed by washing, and adhesion was determined by analyzing lysosomal hexosaminidase.
# A 12-mer peptide (1947.01) plus an N-terminal cysteine (CQLRGLRRWLEAK) (SEQ ID NO. 3) representing the candidate sequence identified by mass spectrometry were synthesized and its ability to inhibit cell adhesion was determined. Tissue culture dishes were coated with 5 μg/ml chondroadherin expressed in E. coli and blocked for non-specific binding with BSA. The cells were suspended in PBS containing 0.1% BSA, 25 U/ml collagenase and added to the wells (50,000/well) in the presence of synthetic peptide (200, 100, 50, 25, 12.5 μg/ml) and allowed to adhere for 1 hour at 37° C. Nonadherent cells were removed by washing, and adhesion was determined by analyzing lysosomal hexosaminidase. […]
# [4] = system: IL-1 stimulated synoviocytes; experiment: IL-6 release in IL-1 stimulated synoviocytes (ELISA); assay type: cell-based, rat; conditions: 50-400 μM peptide, IL-1a 50 ng/ml, 72 hour
# Protocol: The following experiments measure the IL-6 release in IL-1 stimulated synoviocytes.
# Study design: From rats with antigen induced arthritis, the hyperproliferative synovium, pannus, was taken from the inflamed knee day four after disease onset. The pannus tissue was cut to small pieces in PBS with PEST (100 IU penicillin, 100 μg/ml streptomycin) and Fungizone (2.5 μg/ml)(all from InVitrogen, Sweden), before incubation in collagenase (400 U/ml, Worthington, USA) for 3 hours at 37° C., 5% CO2. Cells were centrifugated (8 min., room temperature, 1100 rpm.) and suspended in RPMI 1640 supplemented with 10% FCS (InVitrogen, Sweden), PEST and Fungizone and seeded in a 25 cm^2 flask at 37° C., 5% CO2. The following day, cells were rinsed once with medium and further incubated. When confluent, cells were trypsinated for 1 min (0.25% Trypsin with EDTA, InVitrogen, Sweden) counted and seeded in 96 well plates, 10000 cells/well/200 μl.
# After 24 hours, the medium was changed and the cells were stimulated with human recombinant IL-1a, 50 ng/ml (Roche, Sweden). The peptide to be investigated was tested in triplets in the concentration interval 50-400 μM. After 72 hour incubation at 37° C., 5% CO2, the medium was collected for measurement of NO (Griess reaction) and IL-6 was analyzed by an ELISA, according to the manufacturer's instructions (BD Biosciences, USA).
substance,measurement,setting,value
"H-[CQLRGLRRWLEAKASRPDATC]-OH (H-CQLRGLRRWLEAKASRPDATC-OH; also: cyclised (brackets), bond type not given here) [SEQ ID No. 9]",NO-release from IL-1 stimulated cartilage explants,[1],decrease
same,disease-ameliorating effect compared with methotrexate,[2],in the same magnitude as methotrexate treatment
same,knee-joint swelling compared with saline treated animals,[2]; 4 days,decreased
same,"inhibitory effect on K105 cell adhesion to chondroadherin (Example II, FIG. 13)",[3],inhibitory effect
same,IL-6-release from IL-1 stimulated synoviocytes,[4],decrease
